Source: ChEMBL document CHEMBL1155531, “Structure guided design of 5-arylindazole glucocorticoid receptor agonists and antagonists” (J Med Chem, 2010)

What was measured:
Glucocorticoid receptor [1] = target: T1, Glucocorticoid receptor (Homo sapiens, UniProt P04150); assay: Activity at GR in human A549 cells by NF-kappaB transrepression assay; type: cell-based
T1 sequence (P04150 whole entry): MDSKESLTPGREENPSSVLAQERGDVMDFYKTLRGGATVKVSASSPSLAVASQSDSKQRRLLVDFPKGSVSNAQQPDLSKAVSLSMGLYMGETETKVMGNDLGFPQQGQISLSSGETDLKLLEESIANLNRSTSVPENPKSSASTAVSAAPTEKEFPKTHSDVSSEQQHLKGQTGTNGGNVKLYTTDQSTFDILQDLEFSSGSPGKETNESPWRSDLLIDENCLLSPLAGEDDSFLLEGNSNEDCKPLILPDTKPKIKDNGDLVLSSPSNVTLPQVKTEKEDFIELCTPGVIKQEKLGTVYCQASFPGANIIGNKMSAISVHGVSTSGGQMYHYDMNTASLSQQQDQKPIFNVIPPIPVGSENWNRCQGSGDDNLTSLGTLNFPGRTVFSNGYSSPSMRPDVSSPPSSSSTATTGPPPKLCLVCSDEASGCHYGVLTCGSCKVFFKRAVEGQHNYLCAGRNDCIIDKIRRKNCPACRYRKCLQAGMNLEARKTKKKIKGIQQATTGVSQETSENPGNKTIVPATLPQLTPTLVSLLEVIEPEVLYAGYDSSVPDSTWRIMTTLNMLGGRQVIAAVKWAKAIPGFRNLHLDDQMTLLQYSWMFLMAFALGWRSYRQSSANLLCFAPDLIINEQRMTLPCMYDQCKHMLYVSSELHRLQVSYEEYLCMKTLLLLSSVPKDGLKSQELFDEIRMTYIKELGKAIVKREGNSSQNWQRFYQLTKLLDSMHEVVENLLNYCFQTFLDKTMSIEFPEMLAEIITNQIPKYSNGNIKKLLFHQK

Progesterone receptor = target: T2, Progesterone receptor (Homo sapiens, UniProt P06401); assay: Binding affinity to PR
T2 sequence (P06401 whole entry): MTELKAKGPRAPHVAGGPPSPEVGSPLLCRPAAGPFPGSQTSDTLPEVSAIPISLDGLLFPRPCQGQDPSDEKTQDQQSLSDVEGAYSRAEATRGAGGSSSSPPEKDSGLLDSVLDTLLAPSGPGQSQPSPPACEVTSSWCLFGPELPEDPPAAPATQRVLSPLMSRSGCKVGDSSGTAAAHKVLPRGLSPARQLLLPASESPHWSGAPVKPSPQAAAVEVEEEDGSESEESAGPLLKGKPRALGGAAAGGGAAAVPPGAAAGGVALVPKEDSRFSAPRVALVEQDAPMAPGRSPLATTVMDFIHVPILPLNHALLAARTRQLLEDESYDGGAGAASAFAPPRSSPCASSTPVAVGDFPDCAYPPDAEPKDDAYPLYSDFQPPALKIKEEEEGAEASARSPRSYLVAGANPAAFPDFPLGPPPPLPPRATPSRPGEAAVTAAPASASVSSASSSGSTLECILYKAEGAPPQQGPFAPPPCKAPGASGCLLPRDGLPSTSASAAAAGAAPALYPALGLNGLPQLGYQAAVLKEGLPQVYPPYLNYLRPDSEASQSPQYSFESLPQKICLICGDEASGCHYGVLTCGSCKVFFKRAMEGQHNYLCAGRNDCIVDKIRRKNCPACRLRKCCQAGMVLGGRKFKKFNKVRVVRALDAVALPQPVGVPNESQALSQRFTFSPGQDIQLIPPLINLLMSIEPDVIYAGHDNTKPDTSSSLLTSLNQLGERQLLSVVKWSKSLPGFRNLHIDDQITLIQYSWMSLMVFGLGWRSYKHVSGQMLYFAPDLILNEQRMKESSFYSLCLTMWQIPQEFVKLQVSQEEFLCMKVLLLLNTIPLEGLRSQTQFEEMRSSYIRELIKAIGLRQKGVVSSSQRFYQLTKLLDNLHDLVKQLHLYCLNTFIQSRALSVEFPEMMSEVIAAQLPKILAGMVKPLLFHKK

Androgen receptor = target: T3, Androgen receptor (Homo sapiens, UniProt P10275)
T3 sequence (P10275 whole entry): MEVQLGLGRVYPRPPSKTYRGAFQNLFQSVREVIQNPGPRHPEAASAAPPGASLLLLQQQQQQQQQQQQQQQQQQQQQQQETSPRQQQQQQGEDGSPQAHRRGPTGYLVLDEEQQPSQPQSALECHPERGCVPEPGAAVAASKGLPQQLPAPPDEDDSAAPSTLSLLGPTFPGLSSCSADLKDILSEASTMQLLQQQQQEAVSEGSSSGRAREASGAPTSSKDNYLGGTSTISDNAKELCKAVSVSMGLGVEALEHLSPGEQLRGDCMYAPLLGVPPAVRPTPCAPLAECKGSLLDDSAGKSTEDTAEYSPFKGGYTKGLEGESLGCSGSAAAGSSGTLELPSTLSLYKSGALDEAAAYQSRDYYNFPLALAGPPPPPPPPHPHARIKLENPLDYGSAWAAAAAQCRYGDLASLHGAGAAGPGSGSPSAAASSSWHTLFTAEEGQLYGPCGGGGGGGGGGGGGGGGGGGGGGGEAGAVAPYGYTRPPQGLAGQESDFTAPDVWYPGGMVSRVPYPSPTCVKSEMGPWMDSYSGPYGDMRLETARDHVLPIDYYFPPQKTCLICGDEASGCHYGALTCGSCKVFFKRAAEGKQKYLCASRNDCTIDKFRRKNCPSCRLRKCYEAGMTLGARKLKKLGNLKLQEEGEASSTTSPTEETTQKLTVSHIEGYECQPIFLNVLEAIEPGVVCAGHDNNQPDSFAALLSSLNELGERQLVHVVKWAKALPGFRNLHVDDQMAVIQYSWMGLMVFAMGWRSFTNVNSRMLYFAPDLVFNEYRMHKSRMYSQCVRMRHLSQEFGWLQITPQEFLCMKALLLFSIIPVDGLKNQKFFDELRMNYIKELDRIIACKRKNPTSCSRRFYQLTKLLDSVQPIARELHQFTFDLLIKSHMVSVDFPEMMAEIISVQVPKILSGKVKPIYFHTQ

Glucocorticoid receptor [2] = target: T1, Glucocorticoid receptor; assay: Displacement of fluorescent-labeled Dexamethasone from GR by fluorescent polarization assay
Glucocorticoid receptor [3] = target: T1, Glucocorticoid receptor; assay: Agonist activity at GR in human A549 cells transfected with luciferase gene linked to MMTV promoter assessed as luciferase transactivation activity after 24 hrs; type: functional, cell-based
Glucocorticoid receptor [4] = target: T1, Glucocorticoid receptor; assay: Antagonist activity at GR in human A549 cells transfected with luciferase gene linked to MMTV promoter assessed as inhibition of dexamethasone-induced luciferase transactivation activity after 24 hrs; type: functional, cell-based

Row | SMILES | IC50 (Glucocorticoid receptor [1]) [µM] | IC50 (Progesterone receptor) [µM] | IC50 (Androgen receptor) [µM] | IC50 (Glucocorticoid receptor [2]) [µM] | EC50 (Glucocorticoid receptor [3]) [µM] | IC50 (Glucocorticoid receptor [4]) [µM]
1 | COc1cccc(S(=O)(=O)Nc2ccc(-c3ccc4c(cnn4-c4ccc(F)cc4)c3)c(C(F)(F)F)c2)c1 | 0.0794 | > 10 | 3.16 | 0.0158 | 0.251 | 
2 | Cc1ccccc1-c1ccc2c(cnn2-c2ccc(F)cc2)c1 | > 10 | 6.31 | > 10 | 1.26 |  | 
3 | O=S(=O)(Nc1ccc(-c2ccc3c(cnn3-c3ccc(F)cc3)c2)c(C(F)(F)F)c1)c1ccsc1 | 0.1 | > 10 | 2.51 | 0.0126 | 0.251 | 
4 | N#Cc1ccc(-c2ccc3c(cnn3-c3ccc(F)cc3)c2)cc1 | > 10 | 2 | > 10 | > 10 |  | 
5 | CC(C)(C)c1ccc(S(=O)(=O)Nc2ccc(-c3ccc4c(cnn4-c4ccc(F)cc4)c3)c(C(F)(F)F)c2)cc1 | > 10 | > 2.51 | > 10 | 0.0501 |  | 10
6 | Cc1cccc(-c2ccc3c(cnn3-c3ccc(F)cc3)c2)c1 | > 10 | > 10 | > 10 | 3.16 |  | 
7 | O=S(=O)(Nc1ccc(-c2ccc3c(cnn3-c3ccc(F)cc3)c2)c(C(F)(F)F)c1)c1cccc(OC(F)(F)F)c1 | 0.0794 | > 10 | > 10 | 0.0398 | 0.251 | 
8 | O=S(=O)(Nc1ccc(-c2ccc3c(cnn3-c3ccc(F)cc3)c2)c(C(F)(F)F)c1)c1ccccc1 | > 10 | > 10 | 6.31 | 0.0158 |  | 1.58
9 | N#Cc1ccccc1-c1ccc2c(cnn2-c2ccc(F)cc2)c1 | > 10 | > 10 | > 10 | 0.398 |  | 
10 | CC(C)N(c1ccccc1)S(=O)(=O)c1ccc(-c2ccc3c(cnn3-c3ccc(F)cc3)c2)c(C(F)(F)F)c1 | 0.0501 | > 2.51 | > 10 | 0.0158 | 0.126 | 
11 | CCCS(=O)(=O)Nc1ccc(-c2ccc3c(cnn3-c3ccc(F)cc3)c2)c(C(F)(F)F)c1 | > 10 | > 10 | 3.16 | 0.0158 |  | 2
12 | Fc1ccc(-n2ncc3cc(-c4ccc(C(F)(F)F)cc4)ccc32)cc1 | > 10 | > 10 | > 10 | > 10 |  | 
13 | Fc1ccc(-n2ncc3cc(-c4ccccc4C(F)(F)F)ccc32)cc1 | > 10 | 2.51 | > 10 | 0.251 |  | 
14 | Oc1cccc(-c2ccc3c(cnn3-c3ccc(F)cc3)c2)c1 | > 10 | 2.51 | > 10 | 0.794 |  | 
15 | N#Cc1cccc(-c2ccc3c(cnn3-c3ccc(F)cc3)c2)c1 | > 10 | > 10 | > 10 | > 2.51 |  | 
